According to patent publication US11807650B2, “NMDA receptor modulators and uses thereof” (Novartis AG, priority 2016, dated 2023):

The molecules below were run against T1, human GRIN1 (transcript variant NR1-3) and GRIN2D expressed in Xenopus oocytes (Homo sapiens, UniProt O15399) (assay: NR2D oocyte potentiation assay (two-electrode voltage clamp)). Conditions: 10 uM test compound; glutamate and glycine 10 μM each; holding potential −40 mV.
T1 construct: GenScript (GRIN2D synthesis) SC115601; host or cells: Xenopus oocytes injected with cRNA (1 GluN1 : 2 GluN2)
Format: cell-based
Procedure: NR2D Oocyte Potentiation Assay. Xenopus oocytes (Xenopus 1, Dexter, Mich.) were initially separated from the lobes of an ovary using surgical forceps; they were then defolliculated by constant agitation at room temperature in OR-2 buffer (82.5 mM NaCl; 2.5 mM KCl; 1 mM MgCl2; 5 mM HEPES; pH 7.4) containing 2 mg/ml collagenase Type 1 (Fisher Scientific, USA) for 1.5-2 hours. The cells were then gently aspirated with a Pasteur pipette to remove the follicular tissue; this was followed by washing three times with OR-2 to remove all traces of collagenase. The oocytes were then washed in ND-96 (96 mM NaCl, 2 mM KCl, 1.8 mM CaCl2, 1 mM MgCl2, 5 mM HEPES, 50 ng/L gentamycin, 100 units/ml penicillin and 100 μg/ml streptomycin; pH 7.6) three times and this was followed by incubation in ND-96 at room temperature with mild agitation for 15 minutes; subsequently they were stored for at least 2 hours at 16° C. before sorting and selection for injection. Oocytes selected for injection were incubated overnight in ND-96 at 16° C.
The human GRIN1 (transcript variant NR1-3 (Origene, SKU #: SC115601, Rockville, Md.) and GRIN2D (NCBI locus NM_000836, sequence optimized and synthesized by GenScript) were linearized and transcribed using the mMessage mMachine kit (Life Technologies) and promoters SP6 (for GluN1) and T7 (for GluN2D). cRNAs were mixed together at a ratio of 1 GluN1:2 GluN2. Each oocyte was injected with 50 nL of cRNA and stored in ND96 (96 mM NaCl, 2 mM KCl, 1.8 mM CaCl2, 1 mM MgCl2, 5 mM HEPES, 50 ng/L gentamycin, 100 units/ml penicillin and 100 μg/ml streptomycin; pH 7.6) at 16° C. for 72 h prior to recording.
Currents were recorded using a two-electrode voltage-clamp amplifier (Oocyte Clamp OC-725C; Warner Instrument Corp, Hamden, Conn.), and digitized using Digidata 1550A and pClamp (v. 10) software (Molecular Devices, Sunnyvale, Calif.). Electrodes were filled with 3 M KCl and had resistances that ranged from 0.2-1 MO. All measurements were made at a holding potential of −40 mV. Cells were continuously perfused with oocyte recording solution containing 90 mM NaCl, 1 mM KCl, 0.5 mM BaCl2, and 10 mM HEPES (Ph 7.4). Glutamate and Glycine (co-agonists) were applied at respective concentrations of 10 μM each. Co-agonists were applied until a plateau was reached, and test compounds were then added in the continued presence of co-agonists until a new plateau was reached. After the addition of the last test compound concentration, the oocyte was washed with oocyte recording buffer. Fraction of current remaining was calculated as [(current in presence of test compound−background current)/(co-agonist current−background current)] and IC50 values were computed using Prism 6.0 (Graphpad).

T1 sequence (O15399 28-1336, other chains not shown): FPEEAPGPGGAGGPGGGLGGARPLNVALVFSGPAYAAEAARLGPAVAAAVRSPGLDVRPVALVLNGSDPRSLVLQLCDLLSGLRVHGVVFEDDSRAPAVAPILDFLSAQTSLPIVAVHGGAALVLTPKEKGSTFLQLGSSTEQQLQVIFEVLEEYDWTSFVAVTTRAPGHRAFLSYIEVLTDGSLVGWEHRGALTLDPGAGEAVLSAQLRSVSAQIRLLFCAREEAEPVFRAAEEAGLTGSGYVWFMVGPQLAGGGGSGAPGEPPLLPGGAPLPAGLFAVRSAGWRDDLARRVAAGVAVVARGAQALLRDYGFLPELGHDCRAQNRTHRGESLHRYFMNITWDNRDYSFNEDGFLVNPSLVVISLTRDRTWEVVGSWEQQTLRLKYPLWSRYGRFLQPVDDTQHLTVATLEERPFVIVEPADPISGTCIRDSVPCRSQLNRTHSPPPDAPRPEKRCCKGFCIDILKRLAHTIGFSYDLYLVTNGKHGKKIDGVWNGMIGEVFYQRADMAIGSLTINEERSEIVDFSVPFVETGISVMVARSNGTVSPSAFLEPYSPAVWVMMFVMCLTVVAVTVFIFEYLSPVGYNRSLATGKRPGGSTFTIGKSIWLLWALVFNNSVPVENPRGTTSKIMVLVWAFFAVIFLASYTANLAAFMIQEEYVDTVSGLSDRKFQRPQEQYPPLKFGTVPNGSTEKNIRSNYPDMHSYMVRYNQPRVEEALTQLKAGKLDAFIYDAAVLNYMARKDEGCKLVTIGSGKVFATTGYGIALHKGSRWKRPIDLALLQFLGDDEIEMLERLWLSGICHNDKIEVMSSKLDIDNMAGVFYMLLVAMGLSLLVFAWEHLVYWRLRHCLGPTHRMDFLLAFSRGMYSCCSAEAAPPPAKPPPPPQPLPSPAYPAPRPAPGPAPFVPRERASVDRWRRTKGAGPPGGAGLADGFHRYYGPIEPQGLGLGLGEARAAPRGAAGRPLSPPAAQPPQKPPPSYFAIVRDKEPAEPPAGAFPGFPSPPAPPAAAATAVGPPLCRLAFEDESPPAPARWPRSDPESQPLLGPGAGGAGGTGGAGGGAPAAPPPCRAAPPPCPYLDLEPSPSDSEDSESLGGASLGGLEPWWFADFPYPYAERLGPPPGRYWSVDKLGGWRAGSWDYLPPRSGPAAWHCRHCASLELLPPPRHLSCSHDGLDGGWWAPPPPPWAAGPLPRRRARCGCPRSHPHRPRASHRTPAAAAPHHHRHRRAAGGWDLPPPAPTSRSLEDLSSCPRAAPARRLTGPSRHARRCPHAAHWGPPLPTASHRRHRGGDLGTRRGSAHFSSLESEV

Activation at 10 µM, 100 to 500%:
CC(C)(C)c1ccc(-c2nc3n(c(=O)c2C#N)CC(C(F)(F)F)CS3)cn1 (stereo not shown) [Example 143, 8-(6-(tert-butyl)pyridin-3-yl)-6-oxo-3-(trifluoromethyl)-3,4-dihydro-2H,6H-pyrimido[2,1-b][1,3]thiazine-7-carbonitrile]
CC(C)(C)c1ccc(-c2nc3n(c(=O)c2C#N)C[C@H](CO)CS3)cn1 [Example 130, (R)-8-(6-(tert-butyl)pyridin-3-yl)-3-(hydroxymethyl)-6-oxo-3,4-dihydro-2H,6H-pyrimido[2,1-b][1,3]thiazine-7-carbonitrile]
CC(C)(C)c1ncc(-c2nc3n(c(=O)c2C#N)C[C@@H](CO)CS3)cn1 [Example 137, (S)-8-(2-(tert-butyl)pyrimidin-5-yl)-3-(hydroxymethyl)-6-oxo-3,4-dihydro-2H,6H-pyrimido[2,1-b][1,3]thiazine-7-carbonitrile]
CC(C)(C)c1ccc(-c2nc3n(c(=O)c2C#N)CC(F)(F)CS3)cn1 [Example 24, 8-(6-(tert-butyl)pyridin-3-yl)-3,3-difluoro-6-oxo-3,4-dihydro-2H,6H-pyrimido[2,1-b][1,3]thiazine-7-carbonitrile]
CC1CSc2nc(-c3ccc(C4(C)COC4)nc3)c(C#N)c(=O)n2C1 (stereo not shown) [Example 153, 3-methyl-8-(6-(3-methyloxetan-3-yl)pyridin-3-yl)-6-oxo-3,4-dihydro-2H,6H-pyrimido[2,1-b][1,3]thiazine-7-carbonitrile]
C=C(C)c1ccc(-c2nc3n(c(=O)c2C#N)CCCS3)cn1 [Example 95, 6-oxo-8-(6-(prop-1-en-2-yl)pyridin-3-yl)-3,4-dihydro-2H,6H-pyrimido[2,1-b][1,3]thiazine-7-carbonitrile]
CC1CSc2nc(-c3ccc(C(C)(C)C#N)nc3)c(C#N)c(=O)n2C1 (stereo not shown) [Example 79, 8-[6-(1-cyano-1-methylethyl)pyridin-3-yl]-3-methyl-6-oxo-2H,3H,4H,6H-pyrimido[2,1-b] [1,3]thiazine-7-carbonitrile]

Activation at 10 µM, 500 to 1000%:
C[C@@H]1CSc2nc(-c3cnc(C(C)(C)C)c(O)c3)c(C#N)c(=O)n2C1 [Example 140, (S)-8-(6-(tert-butyl)-5-hydroxypyridin-3-yl)-3-methyl-6-oxo-3,4-dihydro-2H,6H-pyrimido[2,1-b][1,3]thiazine-7-carbonitrile]
COCC1CSc2nc(-c3cnc(C(C)(C)C)nc3)c(C#N)c(=O)n2C1 (stereo not shown) [Example 124, 8-(2-(tert-butyl)pyrimidin-5-yl)-3-(methoxymethyl)-6-oxo-3,4-dihydro-2H,6H-pyrimido[2,1-b][1,3]thiazine-7-carbonitrile]
CC1CSc2nc(-c3ccc(C(C)(C)CF)nc3)c(C#N)c(=O)n2C1 (stereo not shown) [Example 151, 8-(6-(1-fluoro-2-methylpropan-2-yl)pyridin-3-yl)-3-methyl-6-oxo-3 4-dihydro-2H,6H-pyrimido[2,1-b][1,3]thiazine-7-carbonitrile]

Activation at 10 µM, > 1000%:
CNC(=O)C1CSc2nc(-c3cnc(C(C)(C)C)c(F)c3)c(C#N)c(=O)n2C1 (stereo not shown) [Example 163, 8-(6-(tert-butyl)-5-fluoropyridin-3-yl)-7-cyano-N-methyl-6-oxo-3,4-dihydro-2H,6H-pyrimido[2,1-b][1,3]thiazine-3-carboxamide]
CC(C)(C)c1ncc(-c2nc3n(c(=O)c2C#N)C[C@H](CO)CS3)cn1 [Example 138, (R)-8-(2-(tert-butyl)pyrimidin-5-yl)-3-(hydroxymethyl)-6-oxo-3,4-dihydro-2H,6H-pyrimido[2,1-b][1,3]thiazine-7-carbonitrile]
CC(=O)NCC1CSc2nc(-c3cnc(C(C)(C)C)c(F)c3)c(C#N)c(=O)n2C1 (stereo not shown) [Example 146, N-((8-(6-(tert-butyl)-5-fluoropyridin-3-yl)-7-cyano-6-oxo-3,4-dihydro-2H,6H-pyrimido[2,1-b][1,3]thiazin-3-yl)methyl)acetamide]
C[C@H]1CSc2nc(-c3cnc(C(C)(C)C)nc3)c(C#N)c(=O)n2C1 [Example 73, (R)-8-(2-(tert-butyl)pyrimidin-5-yl)-3-methyl-6-oxo-3,4-dihydro-2H,6H-pyrimido[2,1-b][1,3]thiazine-7-carbonitrile]

Activation at 10 µM, 10 to 100%:
CN(C)c1ccc(-c2nc3n(c(=O)c2C#N)CCCS3)cn1 [Example 66, 8-(6-(dimethylamino)pyridin-3-yl)-6-oxo-3,4-dihydro-2H,6H-pyrimido[2,1-b][1,3]thiazine-7-carbonitrile]
COC(C)(C)c1ccc(-c2nc3n(c(=O)c2C#N)CCCS3)cn1 [Example 120]
CC(C)(C)c1ccc(-c2nc3n(c(=O)c2C#N)CCCO3)cn1 [Example 77, 8-(6-(tert-butyl)pyridin-3-yl)-6-oxo-3,4-dihydro-2H,6H-pyrimido[2,1-b][1,3]oxazine-7-carbonitrile]
CC(C)(C)c1ccc(-c2nc3n(c(=O)c2C#N)CC(F)CS3)cn1 (stereo not shown) [Example 16, 8-(6-(tert-butyl)pyridin-3-yl)-3-fluoro-6-oxo-3,4-dihydro-2H,6H-pyrimido[2,1-b][1,3]thiazine-7-carbonitrile]
CN1CSc2nc(-c3cnc(C(C)(C)C)nc3)c(C#N)c(=O)n2C1 [Example 10, 8-(2-(tert-butyl)pyrimidin-5-yl)-3-methyl-6-oxo-3,4-dihydro-2H,6H-pyrimido[2,1-b][1,3,5]thiadiazine-7-carbonitrile]
CC1(c2ccc(-c3nc4n(c(=O)c3C#N)CCCS4)cn2)COC1 [Example 154, 8-(6-(3-methyloxetan-3-yl)pyridin-3-yl)-6-oxo-3,4-dihydro-2H,6H-pyrimido[2,1-b][1,3]thiazine-7-carbonitrile]
CC(C)(C)c1ccc(-c2cc(=O)n3ccccc3n2)cc1 [Example 12, 2-(4-(tert-butyl)phenyl)-4H-pyrido[1,2-a]pyrimidin-4-one]
CCN1CSc2nc(-c3cnc(C(C)(C)C)nc3)c(C#N)c(=O)n2C1 [Example 11, 8-(2-(tert-butyl)pyrimidin-5-yl)-3-ethyl-6-oxo-3,4-dihydro-2H,6H-pyrimido[2,1-b][1,3,5]thiadiazine-7-carbonitrile]
CC(C)(C)c1ccc(-c2nc3n(c(=O)c2Br)CCCC3)cn1 [Example 15, 3-bromo-2-(6-tert-butylpyridin-3-yl)-4H,6H, 7H,8H,9H-pyrido[1,2-a] pyrimidin-4-one]
N#Cc1c(-c2ccc(Br)nc2)nc2n(c1=O)CCCS2 [Example 57, 8-(6-bromopyridin-3-yl)-6-oxo-3,4-dihydro-2H,6H-pyrimido[2,1-b][1,3]thiazine-7-carbonitrile]
COC(C)(C)c1ccc(-c2nc3n(c(=O)c2C#N)CC(C)CS3)cn1 (stereo not shown) [Example 119, 8-(6-(2-methoxypropan-2-yl)pyridin-3-yl)-3-methyl-6-oxo-3,4-dihydro-2H,6H-pyrimido[2,1-b][1,3]thiazine-7-carbonitrile]

NR2D Oocyte % Potentiation @ 10 uM, Inhibitor:
CC1CSc2nc(-c3ccc(C45CC(C4)C5)nc3C34CC(C3)C4)c(C#N)c(=O)n2C1 (stereo not shown) [Example 150, 8-(2,6-di(bicyclo[1.1.1]pentan-1-yl)pyridin-3-yl)-3-methyl-6-oxo-3,4-dihydro-2H,6H-pyrimido[2,1-b][1,3]thiazine-7-carbonitrile]
CCOC(C)(C)c1ccc(-c2nc3n(c(=O)c2C#N)CCCS3)cn1 [Example 122, 8-(6-(2-ethoxypropan-2-yl)pyridin-3-yl)-6-oxo-3,4-dihydro-2H,6H-pyrimido[2,1-b][1,3]thiazine-7-carbonitrile]
CC1(F)CN(c2ccc(-c3nc4n(c(=O)c3C#N)CCCS4)cn2)C1 [Example 53, 8-(6-(3-fluoro-3-methylazetidin-1-yl)pyridin-3-yl)-6-oxo-3,4-dihydro-2H,6H-pyrimido[2,1-b][1,3]thiazine-7-carbonitrile]
